Laboratory results from patent US20020035061A1, “COMPOSITIONS AND METHODS FOR TREATING INFECTIONS USING CATIONIC PEPTIDES ALONE OR IN COMBINATION WITH ANTIBIOTICS” (priority 1996, published 2002).
Values after ≈ are worked out from the molar mass of the structure shown. Values joined by “and” are separate entries in the source; they are usually repeats but may differ in a detail not shown here. Equal values may be shown once. Read-outs that look alike come from different tables or passages of the source.

Legend:
Assay in all cases: microbe, parasite or virus in culture
Type in all cases: cell-based
[1] = tested on: bacterial isolates; settings: for FIC: peptide + Tobramycin
[2] = tested on: inherently resistant microorganisms
[3] = tested on: microorganisms with acquired resistance; settings: for MIC comb. (antibiotic agent): with MBI 29; for Peptide MIC Alone: Tobramycin section; for FIC: peptide + Tobramycin
[4] = Acinetobacter baumannii, read-out: Tobramycin MIC Alone, A. baumannii ABI001
[5] = Acinetobacter baumannii, read-out: Tobramycin MIC Alone, A. baumannii ABI002
[6] = Pseudomonas aeruginosa, read-out: Tobramycin MIC Alone, P. aeruginosa PA008
[7] = Pseudomonas aeruginosa, read-out: Tobramycin MIC Alone, P. aeruginosa PA022
[8] = Pseudomonas aeruginosa, read-out: Tobramycin MIC Alone, P. aeruginosa PA025
[9] = Pseudomonas aeruginosa, read-out: Tobramycin MIC Alone, P. aeruginosa PA026
[10] = Pseudomonas aeruginosa, read-out: Tobramycin MIC Alone, P. aeruginosa PA030
[11] = Pseudomonas aeruginosa, read-out: Tobramycin MIC Alone, P. aeruginosa PA032
[12] = Staphylococcus epidermidis, read-out: Tobramycin MIC Alone, S. epidermidis SE068
[13] = Staphylococcus epidermidis, read-out: Tobramycin MIC Alone, S. epidermidis SE072
[14] = Staphylococcus epidermidis, read-out: Tobramycin MIC Alone, S. epidermidis SE073
[15] = Staphylococcus epidermidis, read-out: Tobramycin MIC Alone, S. epidermidis SE080
[16] = Stenotrophomonas maltophilia, read-out: Tobramycin MIC Alone, S. maltophilia SMA029
[17] = Stenotrophomonas maltophilia, read-out: Tobramycin MIC Alone, S. maltophilia SMA030
[18] = Stenotrophomonas maltophilia, read-out: Tobramycin MIC Alone, S. maltophilia SMA031
[19] = Stenotrophomonas maltophilia, read-out: Tobramycin MIC Alone, S. maltophilia SMA032
[20] = S. maltophilia (strain code stands in r800, not shown)

## NC[C@H]1O[C@H](O[C@H]2[C@H](O)[C@@H](O[C@H]3O[C@H](CO)[C@@H](O)[C@H](N)[C@H]3O)[C@H](N)C[C@@H]2N)[C@H](N)C[C@@H]1O [Tobramycin]
[1]; A. baumannii ABI002
  Tobramycin MIC Alone: 4 µg/mL
[1]; [4]
  MIC: 16 µg/mL (≈ 34.2 µM)
[1]; [5]
  MIC: 8 µg/mL (≈ 17.1 µM)
[1]; Burkholderia cepacia, read-out: Tobramycin MIC Alone, B. cepacia BC001
  MIC: 128 µg/mL (≈ 274 µM)
[1]; Burkholderia cepacia, read-out: Tobramycin MIC Alone, B. cepacia BC002
  MIC: > 128 µg/mL
[1]; Escherichia coli, read-out: Tobramycin MIC Alone, E. coli ECO004
  MIC: 2 µg/mL (≈ 4.28 µM)
[1]; Escherichia coli, read-out: Tobramycin MIC Alone, E. coli ECO006
  MIC: 8 µg/mL (≈ 17.1 µM)
[1]; Klebsiella pneumoniae, read-out: Tobramycin MIC Alone, K. pneumoniae KP008
  MIC: 0.5 µg/mL (≈ 1.07 µM)
[1]; [6]
  MIC: 32 µg/mL (≈ 68.4 µM)
[1]; [7]
  MIC: 8 µg/mL (≈ 17.1 µM)
[1]; [8]
  MIC: 32 µg/mL (≈ 68.4 µM)
[1]; [9]
  MIC: 8 µg/mL (≈ 17.1 µM)
[1]; Pseudomonas aeruginosa, read-out: Tobramycin MIC Alone, P. aeruginosa PA028
  MIC: 32 µg/mL (≈ 68.4 µM)
[1]; Pseudomonas aeruginosa, read-out: Tobramycin MIC Alone, P. aeruginosa PA029
  MIC: 32 µg/mL (≈ 68.4 µM)
[1]; [10]
  MIC: 16 µg/mL (≈ 34.2 µM)
[1]; [11]
  MIC: 16 µg/mL (≈ 34.2 µM)
[1]; S. haemolyticus SHA005
  Tobramycin MIC Alone: 4 µg/mL
[1]; S. maltophilia SMA031
  Tobramycin MIC Alone: >128 µg/mL
[1]; Staphylococcus aureus, MRSA, read-out: Tobramycin MIC Alone, S. aureus SA014 (also SA014 MRSA)
  MIC: > 128 µg/mL
[1]; Staphylococcus aureus, MRSA, read-out: Tobramycin MIC Alone, S. aureus SA014 MRSA
  MIC: > 128 µg/mL
[1]; Staphylococcus aureus, MRSA, read-out: Tobramycin MIC Alone, S. aureus SA018 MRSA
  MIC: 64 µg/mL (≈ 137 µM)
[1]; Staphylococcus aureus, MRSA, read-out: Tobramycin MIC Alone, S. aureus SA025 (also SA025 MRSA)
  MIC: > 128 µg/mL
[1]; Staphylococcus epidermidis, read-out: Tobramycin MIC Alone, S. epidermidis SE067
  MIC: > 128 µg/mL
[1]; [12]
  MIC: > 128 µg/mL
[1]; [13]
  MIC: > 128 µg/mL
[1]; [14]
  MIC: > 128 µg/mL
[1]; [15]
  MIC: 32 µg/mL (≈ 68.4 µM)
[1]; Staphylococcus haemolyticus, read-out: Tobramycin MIC Alone, S. haemolyticus SHA001
  MIC: 4 µg/mL (≈ 8.56 µM)
[1]; Staphylococcus haemolyticus, read-out: Tobramycin MIC Alone, S. haemolyticus SHA005
  MIC: 8 µg/mL (≈ 17.1 µM)
[1]; Stenotrophomonas maltophilia, read-out: Tobramycin MIC Alone, S. maltophilia (strain code stands in r800, not shown)
  MIC: 128 µg/mL (≈ 274 µM)
[1]; Stenotrophomonas maltophilia, read-out: Tobramycin MIC Alone, S. maltophilia SMA027
  MIC: 32 µg/mL (≈ 68.4 µM)
[1]; [16]
  MIC: 128 µg/mL (≈ 274 µM)
[1]; [17]
  MIC: 128 µg/mL (≈ 274 µM)
[1]; [18]
  MIC: 128 µg/mL (≈ 274 µM)
[1]; [19]
  MIC: 128 µg/mL (≈ 274 µM)
[1]; Stenotrophomonas maltophilia, read-out: Tobramycin MIC Alone, S. maltophilia SMA035
  MIC: 32 µg/mL (≈ 68.4 µM)
[2]; Staphylococcus aureus, read-out: Tobramycin MIC + Peptide, S. aureus, peptide MBI 11A1CN
  MIC: 0.125 µg/mL
[2]; Staphylococcus aureus, read-out: Tobramycin MIC + Peptide, S. aureus, peptide MBI 11D18CN
  MIC: 4 µg/mL
[2]; Staphylococcus aureus, read-out: Tobramycin MIC + Peptide, S. aureus, peptide MBI 11F3CN
  MIC: 2 µg/mL
[2]; Staphylococcus aureus, read-out: Tobramycin MIC + Peptide, S. aureus, peptide MBI 11G13CN
  MIC: 0.125 µg/mL
[2]; Staphylococcus aureus, read-out: Tobramycin MIC + Peptide, S. aureus, peptide MBI 21A1
  MIC: 0.125 µg/mL
[2]; Staphylococcus aureus, read-out: Tobramycin MIC + Peptide, S. aureus, peptide MBI 22A1
  MIC: 4 µg/mL
[2]; Staphylococcus aureus, read-out: Tobramycin MIC Alone, S. aureus
  MIC: > 128 µg/mL
[2]; Staphylococcus haemolyticus, read-out: Tobramycin MIC + Peptide, S. haemolyticus, peptide MBI 11A1CN
  MIC: 4 µg/mL
[2]; Staphylococcus haemolyticus, read-out: Tobramycin MIC Alone, S. haemolyticus
  MIC: 8 µg/mL (≈ 17.1 µM)
[3]; A. calcoaceticus
  MIC comb. (antibiotic agent): 1 µg/mL (≈ 2.14 µM)
[3]; [4]
  MIC: 16 µg/mL (≈ 34.2 µM)
[3]; [5]
  MIC: 8 µg/mL (≈ 17.1 µM)
[3]; Acinetobacter calcoaceticus, read-out: MIC alone (antibiotic agent), A. calcoaceticus
  MIC: 8 µg/mL (≈ 17.1 µM)
[3]; Escherichia coli, read-out: Tobramycin MIC Alone, E. coli EC0006
  MIC: 8 µg/mL (≈ 17.1 µM)
[3]; P. aeruginosa PA032
  Tobramycin MIC Alone: 8 µg/mL
[3]; P. aeruginosa
  MIC comb. (antibiotic agent): 1 µg/mL (≈ 2.14 µM)
[3]; Pseudomonas aeruginosa, read-out: MIC alone (antibiotic agent), P. aeruginosa
  MIC: 64 µg/mL (≈ 137 µM)
[3]; [6]
  MIC: 32 µg/mL (≈ 68.4 µM)
[3]; [7]
  MIC: 8 µg/mL (≈ 17.1 µM)
[3]; [8]
  MIC: 32 µg/mL (≈ 68.4 µM)
[3]; [9]
  MIC: 8 µg/mL (≈ 17.1 µM)
[3]; [10]
  MIC: 16 µg/mL (≈ 34.2 µM)
[3]; Pseudomonas aeruginosa, read-out: Tobramycin MIC Alone, P. aeruginosa PA031
  MIC: 16 µg/mL (≈ 34.2 µM)
[3]; [11]
  MIC: 16 µg/mL (≈ 34.2 µM)
[3]; S. maltophilia SMA031
  Tobramycin MIC Alone: 128 µg/mL and >128 µg/mL
[3]; [12]
  MIC: > 128 µg/mL
[3]; Staphylococcus epidermidis, read-out: Tobramycin MIC Alone, S. epidermidis SE071
  MIC: > 128 µg/mL
[3]; [13]
  MIC: > 128 µg/mL
[3]; [14]
  MIC: > 128 µg/mL
[3]; [15]
  MIC: 16 µg/mL (≈ 34.2 µM)
[3]; [16]
  MIC: 128 µg/mL (≈ 274 µM)
[3]; [17]
  MIC: 128 µg/mL (≈ 274 µM)
[3]; [18]
  MIC: 64 µg/mL (≈ 137 µM)
[3]; [19]
  MIC: 128 µg/mL (≈ 274 µM)

## Gentamicin
[1]; A. calcoaceticus AC001
  Gentamicin MIC Alone: 8 µg/mL
[1]; E. faecalis EFS008
  Gentamicin MIC Alone: >128 µg/mL and 128 µg/mL
[1]; E. faecium EFM004
  Gentamicin MIC Alone: >128 µg/mL
[1]; P. aeruginosa PA022
  Gentamicin MIC Alone: 32 µg/mL and 16 µg/mL
[1]; P. aeruginosa PA023
  Gentamicin MIC Alone: 8 µg/mL
[1]; P. aeruginosa PA041
  Gentamicin MIC Alone: 8 µg/mL and 16 µg/mL
[1]; S. aureus SA014 MRSA
  Gentamicin MIC Alone: 32 µg/mL
[1]; S. epidermidis SE071
  Gentamicin MIC Alone: 16 µg/mL
[1]; S. epidermidis SE074
  Gentamicin MIC Alone: 128 µg/mL
[1]; S. maltophilia (strain line r400 not shown)
  Gentamicin MIC Alone: 128 µg/mL
[1]; S. maltophilia SMA016
  Gentamicin MIC Alone: >128 µg/mL and 128 µg/mL
[1]; S. maltophilia SMA017
  Gentamicin MIC Alone: 128 µg/mL
[2]; S. aureus MRSA
  Gentamicin MIC Alone: 32 µg/mL
[2]; S. aureus MRSA, peptide MBI 11B16CN
  Gentamicin MIC + Peptide: 1 µg/mL
[3]; A. baumannii ABI002
  Gentamicin MIC Alone: 16 µg/mL and 32 µg/mL
[3]; A. calcoaceticus AC001
  Gentamicin MIC Alone: 8 µg/mL
[3]; P. aeruginosa PA022
  Gentamicin MIC Alone: 32 µg/mL
[3]; P. aeruginosa PA023
  Gentamicin MIC Alone: 8 µg/mL and 16 µg/mL
[3]; P. aeruginosa PA041
  Gentamicin MIC Alone: 8 µg/mL and 16 µg/mL

## KKWWRRALQALKNGLPALIS [MBI 22A1]
[1]; S. aureus SA014 MRSA
  Peptide MIC + Tobramycin: 2 µg/mL
  Peptide MIC Alone: 8 µg/mL
  Tobramycin MIC + Peptide: 4 µg/mL
  FIC: 0.27
[1]; S. epidermidis SE072
  Peptide MIC + Tobramycin: 8 µg/mL
  Peptide MIC Alone: 16 µg/mL
  Tobramycin MIC + Peptide: 0.125 µg/mL
  FIC: 0.50
[1]; S. epidermidis SE073
  Peptide MIC + Tobramycin: 8 µg/mL
  Peptide MIC Alone: 16 µg/mL
  Tobramycin MIC + Peptide: 0.125 µg/mL
  FIC: 0.50
[1]; S. epidermidis SE080
  Peptide MIC + Tobramycin: 0.125 µg/mL
  Peptide MIC Alone: 2 µg/mL
  Tobramycin MIC + Peptide: 16 µg/mL
  FIC: 0.56
[1]; [20]
  Peptide MIC + Tobramycin: 8 µg/mL
  Tobramycin MIC + Peptide: 0.5 µg/mL
  FIC: 0.25
[1]; S. maltophilia (strain code stands in r800, not shown), Tobramycin section
  Peptide MIC Alone: 32 µg/mL
[1]; S. maltophilia SMA030
  Peptide MIC + Tobramycin: 8 µg/mL
  Tobramycin MIC + Peptide: 1 µg/mL
  FIC: 0.26
[1]; S. maltophilia SMA030, Tobramycin section
  Peptide MIC Alone: 32 µg/mL
[2]; S. aureus
  Peptide MIC + Tobramycin: 2 µg/mL
[2]; S. aureus, Tobramycin section
  Peptide MIC Alone: 8 µg/mL
[2]; peptide + Tobramycin, S. aureus
  FIC: 0.27
[3]; A. baumannii ABI001
  Peptide MIC + Tobramycin: 2 µg/mL
  Tobramycin MIC + Peptide: 4 µg/mL
  Peptide MIC Alone: 4 µg/mL
  FIC: 0.75
[3]; S. epidermidis SE072
  Peptide MIC + Tobramycin: 8 µg/mL
  Tobramycin MIC + Peptide: 0.125 µg/mL
  Peptide MIC Alone: 16 µg/mL
  FIC: 0.50
[3]; S. epidermidis SE073
  Peptide MIC + Tobramycin: 8 µg/mL
  Tobramycin MIC + Peptide: 0.125 µg/mL
  Peptide MIC Alone: 16 µg/mL
  FIC: 0.50
[3]; S. maltophilia SMA029
  Peptide MIC + Tobramycin: 8 µg/mL and 16 µg/mL
  Peptide MIC Alone: 16 µg/mL and 32 µg/mL
  FIC: 0.51 and 0.50
